l = locked nucleic acid (LNA); d = 2'-deoxy (DNA)
Experiments:
[1] = test system: PTEC-TERT1 cells; assay: EGF assay, supernatant of PTEC-TERT1 cells
Experimental: (§4) Prior to treatment with oligonucleotides the PTEC-TERT1 were seeded into collagen I-coated 96-well plates (Corning, 356407) at a density of 40 000 and 20 000 cells/well respectively in PTEC medium and grown until confluence.
(§5) Oligonucleotides were dissolved in PBS and added to the cell culture at the given concentration, such as 10, 30 or 100 μM. The total volume of each well was 100 μl. PBS served as vehicle control.
(§6) When extra cellular markers, like EGF and KIM-1, were analyzed following the oligonucleotide treatment the medium was collected and stored at −20° C. until further analysis. […] The collected medium was stored at −20° C.
(§7) For analysis of human EGF, cell supernatants were thawed on ice, diluted 1:2 and 1:10 in sample dilution buffer (BioRad catalog # M60-009RDPD) and analyzed by Luminex®-based ELISA using human EGF beads (Bio-Plex Pro™ Human Cancer Biomarker Panel 2 EGF Set#171BC603M), or followed by analysis using the Bio-Plex® 200 Systems (BioRad) according to the manufacturer's instructions. Data are reported as mean concentrations and standard deviations of triplicate wells.

[2] = test system: Wistar Han Crl:WI(Han) male rats; assay: In vivo nephrotoxicity in rats
Experimental: Purpose bred Wistar Han Crl:WI(Han) male rats obtained from Charles River Laboratories at 7 to 8 weeks of age were divided into groups of 4 (table 1, exp. A) or 8 (table 1, exp. B) based on body weight and acclimatized for at least 5 days before dosing. The animals were housed under standard environmental conditions ([…], relative humidity 50±20%, a light/dark cycle 12 h/12 h, pelleted food and water ad libitum), were offered enriched environment in an AAALAC accredited facility and were regularly and carefully monitored. All procedures were in accordance with the respective local regulations and according to the animal permissions granted by the Institutional Animal Care and Use Committee. Test compounds were formulated in isotonic sterile saline, sterile filtered (0.22 μm), and dosed at 40 mg/kg on days 1 and 8 (2.5 ml/kg) in the intrascapular region. Control group animals received saline as vehicle control. On day 15 animals were orally administered tap water (10 ml/kg), and urine was collected on ice for 6 hours in metabolic cages. […] On day 15 the rats were sacrificed by an intraperitoneal injection of pentobarbital and exsanguinated. Kidney cortex samples were collected and fixed by immersion in 10% neutral buffered formalin, embedded in paraffin, sectioned to 5 μm and stained with hematoxylin and eosin (H&). The H&E sections were then scanned at 20× magnification using an Aperio ScanScope AT™ (Leica Biosystems) scanner and pictures were then captured via ImageScope™ software from the scanned images. One or more of the following parameters were assessed kidney weight, serum creatinine, urine protein, KIM-1 protein in urine, KIM-1 mRNA, kidney degeneration/regeneration and relative tubulotoxicity grade.

[3] = test system: A549 cells; assay: Intracellular ATP assay, A549 cells transfected with oligonucleotide; type: cell-based, human; settings: A549, 48 hours after transfection;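 further: ATP as percent of saline control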
Experimental: (§1) A549 cells (ATCC CCL-185) were cultivated according to the manufacturer's instructions in A549 medium [F-12K Nut Mix (Gibco, 21127-022), 1% penicillin/streptomycin (Gibco: 15140-122), 10% FBS (Gibco 16000-044)].
(§2) Prior to treatment with oligonucleotides the A549 cells were seeded in 96 well plates at 3′000 cells per well in A549 regular medium and grown until 60% confluence. […]
Each sample was tested in triplicate.
(§3) A549 were cultivated as described in the “Materials and methods” section. At after at 50-60% confluence the oligonucleotides were transfected into the cells using 0.5 μl Lipofectamin (Invitrogen, 11668-019) in 25 μl OptiMEM® (GIBCO 31985062) and 1 ng or 10 ng oligonucleotide in the same volume OptiMEM. The cells were incubated over night at 37° C. The medium was changed using A459 regular medium+10 ng/ml EGF. 48 hours after transfection the medium was collected for EGF measurements and the cells were harvested for ATP measurements.

[4] = test system: Primary human hepatocytes; assay: EGF assay, culture media of primary human hepatocytes; type: cell-based; settings: 10 ng/ml EGF in medium;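 further: values as percent of saline vehicle control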
Experimental: Cryopreserved human hepatocytes were suspended in William's Medium E (WME) without phenol red (Sigma W-1878) supplemented with 10% fetal calf serum, penicillin (100 U/ml), streptomycin (0.1 mg/ml) at a density of approx. 1×10^6 cells/ml and seeded into collagen-coated 96-well plates (Becton Dickinson AG, Allschwil, Switzerland) at a density of 0.4×10^5 cells/well. Cells were pre-cultured for 3 to 4 h allowing for attachment to cell culture plates before start of treatment with oligonucleotides.
Before oligonucleotide treatment the seeding medium was replaced by 90 μl of serum free WME.
The total volume of each well was 100 μl. PBS served as vehicle control.
Human primary hepatocytes were cultivated as described in the “Materials and methods” section with addition of 10 ng/ml of EGF to the medium. At confluence the cells were treated with oligonucleotide as described in the “Materials and methods” section, in concentrations of 10 or 100 μM.
The medium was obtained at day 3, and the EGF level was measured according to the assay described in the “Materials and methods” section.

[5] = test system: A549 cells; assay: EGF assay, A549 cells transfected with oligonucleotide; type: cell-based, human; settings: A549, 48 hours after transfection;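 further: values as percent of saline control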
Experimental: as §1, §2, §3

[6] = test system: PCSK9 mRNA; assay: Target knock down (PCSK9 mRNA levels) in PTEC-TERT1 cells; type: cell-based, human; settings: normalized to PPIB
Experimental: For assessment of the target knock down (PCSK9 mRNA levels) total mRNA was extracted from the cells adding 100 μl of 1× RNA lysis mixture (QuantiGene® Sample Processing Kit, QS0101) directly into the wells according to the manufacturer's instructions. RNA lysis mixtures were kept at −80° C. until analysis. For gene expression analysis, 20 μl of lysates were mixed with an mRNA-capture magnetic beads sets (Panomics QuantiGene® Plex Set catalog #12697), incubated overnight, processed for branched DNA amplification and analyzed according to the manufacturer's instructions (Panomics QuantiGene® Plex Assay kit, QP1015). The PPIB probe was used as housekeeping gene for normalization. Average Fluoresence Intensity (FI) and standard deviation of 3 biological replicates were calculated and normalized on vehicle control. The results are shown in table 11, and represent the average of three identical treatments.

[7] = test system: PTEC-TERT1 cells; assay: Morphological changes of PTEC-TERT1 cells upon oligonucleotide treatment; type: cell-based, human; settings: 100 μM oligonucleotide, 7 days, bright field microscopy, vs saline
Experimental: PTEC-TERT1 cells were cultures as described in the “Materials and methods” section. To mimic the physiological exposure of renal tubules to circulating naked oligonucleotide (i.e. without assistance of delivery technology, herein termed gymnosis or gymnotic delivery), confluent monolayers of PTEC-TERT1 cells were exposed to an aqueous solution of 100 μM oligonucleotide. The medium was replaced every three days including 100 μM fresh oligonucleotide in the fresh medium.
After 7 days of treatment the morphological alterations in the treated cell cultures were investigated under bright field microscopy.

[8] = test system: Human primary proximal tubule epithelial cells (PTEC); assay: EGF assay, supernatant of primary PTEC cells
Experimental: Prior to treatment with oligonucleotides the primary PTEC cells were seeded into collagen I-coated 96-well plates (Corning, 356407) at a density of 40 000 and 20 000 cells/well respectively in PTEC medium and grown until confluence.
as §5, §6
For analysis of human EGF, cell supernatants were thawed on ice, diluted 1:2 and 1:10 in sample dilution buffer (BioRad catalog # M60-009RDPD) and analyzed by Luminex®-based ELISA using human EGF beads (Bio-Plex Pro™ Human Cancer Biomarker Panel 2 EGF Set#171BC603M), or followed by analysis using the Bio-Plex® 200 Systems (BioRad) according to the manufacturer's instructions. Data are reported as mean concentrations and standard deviations of triplicate wells. An increase of EGF levels above 200% was considered as predictive for nephrotoxicity.

[9] = test system: PTEC-TERT1 cells
Experimental: as §4, §5, §6, §7

[10] = test system: PTEC-TERT1 cells; remark: listed apart in the source
Experimental: as §4, §5, §6
For analysis of human KIM-1, cell supernatants were thawed on ice, diluted 1:2 and 1:10 in sample dilution buffer (BioRad catalog # M60-009RDPD) and analyzed by Luminex®-based ELISA using human KIM-1 beads (Human Kidney Injury panel 4, Millipore HKI4MAG-99K-KIM1) followed by analysis using the Bio-Plex® 200 Systems (BioRad) according to the manufacturer's instructions. Data are reported as mean concentrations and standard deviations of triplicate wells. An increase of KIM-1 levels above 200% was considered as predictive for nephrotoxicity.

[11] = PTEC-TERT1, Day 3, 11 μM (Table 3)
[12] = PTEC-TERT1, Day 3, 33 μM (Table 3)
[13] = PTEC-TERT1, Day 3, 100 μM (Table 3)
[14] = PTEC-TERT1, Day 7, 11 μM (Table 3)
[15] = PTEC-TERT1, Day 7, 33 μM (Table 3)
[16] = PTEC-TERT1, Day 7, 100 μM (Table 3)
[17] = PTEC-TERT1, Day 10, 11 μM (Table 3)
[18] = PTEC-TERT1, Day 10, 33 μM (Table 3)
[19] = PTEC-TERT1, Day 10, 100 μM (Table 3)

| Substance | EGF [1, 11] | EGF [1, 12] | EGF [1, 13] | EGF [1, 14] | EGF [1, 15] | EGF [1, 16] | EGF [1, 17] | EGF [1, 18] | EGF [1, 19] | ATP ([3]; 1 ng oligonucleotide) | ATP ([3]; 10 ng oligonucleotide) | EGF ([4]; day 3, 10 μM) | EGF ([4]; day 3, 100 μM) | EGF ([5]; 1 ng oligonucleotide) | EGF ([5]; 10 ng oligonucleotide) | further results |
| --- | --- | --- | --- | --- | --- | --- | --- | --- | --- | --- | --- | --- | --- | --- | --- | --- |
| AATgctacaaaaCCCA (antisense AATGCTACAAAACCCA; sugars from the 5' end l3 d9 l4, backbone and methylation of C not given here) [Compound 2-1] | 135 % saline | 192 % saline | 172 % saline | 69 % saline | 88 % saline | 117 % saline | 47 % saline | 63 % saline | 154 % saline | 96 % saline | 59 % saline | 122 % saline | 211 % saline | 80 % saline | 161 % saline | In vivo nephrotoxicity / in vivo grade of toxicity ([2]; 40 mg/kg on days 1 and 8, assessed day 15, 40 mg/kg): low and Low; PCSK9 mRNA ([6]; PTEC-TERT1, EGF 0 ng/ml in medium): 1.73 % of saline; PCSK9 mRNA ([6]; PTEC-TERT1, EGF 10 ng/ml in medium): 1.02 % of saline |
| CGTcagtatgcgAATc (CGTCAGTATGCGAATC; chemistry not given here) [Compound 1-1] | 145 % saline | 214 % saline | 137 % saline | 94 % saline | 122 % saline | 135 % saline | 32 % saline | 41 % saline | 59 % saline | 89 % saline | 100 % saline | 123 % saline | 159 % saline | 69 % saline | 75 % saline | morphological changes [7]: did not show any morphological changes; EGF ([1]; PTEC-TERT1, Day 3, 3 μM (Table 2)): 88 % saline; EGF ([1]; PTEC-TERT1, Day 3, 10 μM (Table 2)): 93 % saline; EGF ([1]; PTEC-TERT1, Day 3, 30 μM (Table 2)): 108 % saline; EGF ([1]; PTEC-TERT1, Day 3, 100 μM (Table 2)): 119 % saline; EGF ([1]; PTEC-TERT1, Day 6, 3 μM (Table 2)): 124 % saline; EGF ([1]; PTEC-TERT1, Day 6, 10 μM (Table 2)): 152 % saline; EGF ([1]; PTEC-TERT1, Day 6, 30 μM (Table 2)): 180 % saline; EGF ([1]; PTEC-TERT1, Day 6, 100 μM (Table 2)): 172 % saline; EGF ([8]; Day 3, 3 μM): 95 % saline; EGF ([8]; Day 3, 10 μM): 99 % saline; EGF ([8]; Day 3, 30 μM): 112 % saline; EGF ([8]; Day 3, 100 μM): 120 % saline; EGF ([8]; Day 6, 3 μM): 62 % saline; EGF ([8]; Day 6, 10 μM): 71 % saline; EGF ([8]; Day 6, 30 μM): 77 % saline; EGF ([8]; Day 6, 100 μM): 98 % saline |
| Compound 20-1: antisense oligonucleotide comprising 2′-O-methoxyethyl-RNA (MOE) modifications, targeting sodium-glucose co-transporter 2 (SGLT2), SEQ ID NO 20 (GGCATGAGCTTC; MOE modifications, pattern not given here) |  |  |  |  |  |  |  |  |  |  |  |  |  |  |  | In vivo nephrotoxicity / in vivo grade of toxicity ([2]; 40 mg/kg on days 1 and 8, assessed day 15): low/medium; prediction of in vivo nephrotoxicity with EGF as biomarker [9]: could be predicted; predictive KIM-1 elevation [10]: observed |

Reference: patent US11105794B2, “In vitro nephrotoxicity screening assay” (Hoffmann-La Roche Inc., priority 2016, dated 2021)
